This test concerns CEM cells HIV-1 protection, formazan growth assay. The test is described as follows: NCI AIDS Antiviral Assay. As to conditions: for IC50: measured here: growth of uninfected CEM cells. A digest of the protocol: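 Category rules: moderately active means at least 50% protection on retest, and confirmed active means 100% protection reproducibly. The underlying data came from a formazan growth assay in HIV-1-infected CEM cells.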

Activity calls are given as the source filed them.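 How the source made its calls: active means compounds giving half or more protection of infected cells from virus-caused growth loss, again on retest; inactive means the rest.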 Where a SMILES comes first, the peptide text is derived from it. The star is where a group is joined. ONb = O=[N+]([O-])c1ccc(CO*)cc1; Boc = CC(C)(C)OC(=O)*

`COC1=CC(=O)[C@]2(C)[C@H](C1=O)C(C)[C@H]2c1ccccc1` (stereo partly drawn): the EC50 is above 95.5 µM and the IC50 is above 95.5 µM.
With `CC(C)=CC[P+](c1ccccc1)(c1ccccc1)c1ccccc1`, the EC50 is above 200 µM and the IC50 turned out to be 2.09 µM.
Take `CCOC(=O)C1SC(=Nc2ccc(OC)c(OC)c2)N=C1C` (stereo not drawn): the EC50 is above 22.4 µM and the IC50 is above 22.4 µM.
Take `COC(=O)CSc1n[nH]c(-c2ccccc2)n1`: the EC50 is above 1000 µM and the IC50 turned out to be 372 µM.
For the compound `N#Cc1c(Cl)nc2ccccc2c1N=[N+]=[N-]`, the EC50 is above 200 µM and the IC50 worked out at 0.912 µM.
The matching figures for `O=C1CCCc2c(O)ccc(O)c21`: above 380 µM and 60.3 µM.
The matching figures for `CC(=O)OC(C)C1C2=C(C(=O)CC1(C)O)C(=O)c1c(ccc(-c3ccc4c(c3O)C(=O)C3=C(C4=O)C(C(C)OC(C)=O)C(C)(O)CC3=O)c1O)C2=O` (stereo not drawn): above 66.1 µM and 0.263 µM.
The matching figures for `CC(=O)O[C@H]1[C@@H]2[C@@H](C[C@H](C)[C@H]3C=CC(=O)[C@@]31C)OC(=O)[C@@H]2C`: above 200 µM and 34.7 µM.
Regarding `NC(N)=NC(CSSCC(N=C(N)N)C(=O)O)C(=O)O` (stereo not drawn), the EC50 is above 200 µM and the IC50 is above 200 µM.
On to `COc1ccc(NC(=O)Oc2ccc3c(C)cc(=O)oc3c2)c(OC)c1` (tested in a mixture with another compound), for which the EC50 is above 100 µM and the IC50 was found to be 46.8 µM.
In the case of `CCOC(=O)C1C/C(=N\OC(C)=O)c2ccc(OC)c(OC)c2C1` (stereo not drawn), the result was inactive.
Take `CC(CN1CCCC1)C(O)(Cc1ccccc1)c1ccc(Cl)cc1` (stereo not drawn): the EC50 is above 200 µM and the IC50 came out at 30.9 µM.
As for `NCCN.NCCN.O=C([O-])CCl.O=C([O-])CCl.[Co+3].[O-][Cl+3]([O-])([O-])[O-]`, the outcome was inactive.
Consider `COc1cc(-c2cc(-c3ccccc3)c3cc(Cl)ccc3n2)cc(OC)c1OC`, for which the EC50 is above 200 µM and the IC50 was above 200 µM.
As to `OCCN1CCN2C=C(C3CCCC4N(CCO)CCN34)CCC21` (stereo not drawn), the EC50 was above 741 µM and the IC50 is 33.9 µM.
The matching figures for `O=C1Cc2cc3ccccc3nc2-c2ccccc2N1`: above 200 µM and above 200 µM.
Turning to `Nc1ccc(/C=C/c2ccc(NCc3c(O)cc(O)cc3C(=O)O)cc2S(=O)(=O)O)c(S(=O)(=O)O)c1`, the EC50 was 107 µM and the IC50 is above 200 µM.
On to `COC(=O)C(=O)C(C(=O)C(=O)Nc1cc(C)ccc1C)c1nc2ccccc2[nH]c1=O` (stereo not drawn), for which the EC50 was above 589 µM and the IC50 came to 275 µM.
`CC1(C)NNC(=S)NC1=O`: the EC50 is above 1580 µM and the IC50 is above 1580 µM.
As to `N#CCC(=O)N/N=C(\C(=O)Nc1ccc(Cl)c(Cl)c1)C1CN(c2ccccc2)N=C1N` (stereo not drawn), the EC50 is above 79.4 µM and the IC50 was above 79.4 µM.
Consider `CC1=C(C(=O)NNC(=O)C(N)=O)CC(C(=O)NNC(=O)C(N)=O)=C(C)N1`, for which the EC50 was above 200 µM and the IC50 was above 200 µM.
Take `c1ccc(N2N=NC3C4CC(C5CCCC54)C32)cc1` (stereo not drawn): the EC50 was above 200 µM and the IC50 is above 100 µM.
The matching figures for `O=S(=O)(/C=C/c1ccc(Cl)cc1Cl)Cc1ccccc1CS(=O)(=O)/C=C/c1ccc(Cl)cc1Cl`: above 12.6 µM and above 12.6 µM.
As for `CC(C)CC(NC(=O)OC(C)(C)C)C(=O)NC(CCC(=O)OCc1ccc([N+](=O)[O-])cc1)C(=O)OCc1ccc([N+](=O)[O-])cc1` (stereo not drawn) (Boc-Leu-Glu(ONb)-ONb; configuration not given here), the EC50 is above 200 µM and the IC50 came out at 10.7 µM.
The matching figures for `CN(C)CC(=O)C1C(=O)N(C)c2ccccc21` (stereo not drawn): above 200 µM and above 200 µM.
The matching figures for `CCCN=Cc1c(O)c(O)c(C(C)C)c2cc(C)c(-c3c(C)cc4c(C(C)C)c(O)c(O)c(C=NCCC)c4c3O)c(O)c12`: above 6.31 µM and 1.15 µM.
Consider `O=C1CC(C[C@H](O)C2CCCCC2O)CC(=O)N1Cc1ccccc1` (stereo partly drawn), for which the EC50 was above 200 µM and the IC50 is above 200 µM.
For `CC(=O)Nc1ccc(-c2nnc(SCC(=O)Nc3cccc(C)c3)o2)cc1`, the EC50 was above 67.6 µM and the IC50 came to 11.7 µM.
The matching figures for `COc1cccc(NC(=O)CC(=O)Nc2cccc(OC)c2)c1`: above 200 µM and above 200 µM.
Turning to `S=C1OC2C3C4CC5C3C(O1)C1C5C4C21` (stereo not drawn), the result was inactive.
In the case of `COC(=O)C(C)(Cc1ccc2c(c1)nnn2C(C)=O)NC(C)=O` (stereo not drawn), the EC50 was above 200 µM and the IC50 is above 200 µM.
Consider `CC(=O)OC12CC(C)C3(O)C4C=C(C)C(=O)[C@@]4(O)CC(CO)=C[C@H]3C1C2(C)C` (stereo partly drawn), for which the outcome was active.
Regarding `COC(=O)CC(C(C(=O)OC)C(=O)OC)N1C(=O)OC(c2ccccc2)C1c1ccccc1` (stereo not drawn), the EC50 is 37.2 µM and the IC50 came out at 74.1 µM.
The matching figures for `CCCCCCCCOC1N(C2CC(N=[N+]=[N-])C(CO)O2)C(=O)NC(=O)[C@]1(C)Cl` (stereo partly drawn): above 200 µM and 37.2 µM.
Consider `CCOC(=O)/C(=C\c1ccc(C)o1)P(=O)(OCC)OCC`, for which the EC50 is above 794 µM and the IC50 is above 100 µM.
In the case of `CC(C)(C)OC(=O)Nc1nnc(S(N)(=O)=O)s1`, the EC50 was 182 µM and the IC50 is above 200 µM.
The matching figures for `COc1ccc(CSC2=C(C#N)C(=O)NC3(CCCCC3)S2)cc1`: above 200 µM and 110 µM.
As to `CC(O)C(NC(=O)C1CSSCC(NC(=O)C(Cc2ccccc2)NC(=O)OCC2c3ccccc3-c3ccccc32)C(=O)NC(Cc2ccccc2)C(=O)NC(Cc2cn(C=O)c3ccccc23)C(=O)NC(CCCCNC(=O)OCC2c3ccccc3-c3ccccc32)C(=O)NC(C(C)O)C(=O)N1)C(N)=O` (stereo not drawn), the EC50 is above 50.1 µM and the IC50 was determined as 6.46 µM.
Consider `O=C1C=C(N2CCOCC2)c2cc(N3CCOCC3)ncc2C1=O`, for which the result was inactive.
On to `CCOC(=O)C(Cl)(Cl)/S(=N\S(=O)(=O)c1ccccc1)NC(=O)c1ccccc1` (stereo not drawn), for which the EC50 is above 200 µM and the IC50 was above 200 µM.
As for `CCSC(SCC)C(O)C(O)C(O)C(O)C(O)C(O)CO` (stereo not drawn), the result was inactive.
Regarding `COC(=O)C(C)(NC(=O)C(CC(=O)OC(C)(C)C)NC(=O)OC(C)(C)C)c1ccccc1` (stereo not drawn), the EC50 is above 200 µM and the IC50 was above 100 µM.
The matching figures for `CCOP(=S)(N/N=C1\CC2CCC1C2)OCC` (stereo not drawn): above 200 µM and above 200 µM.
Regarding `O=C(/C(=C/c1cccc([N+](=O)[O-])c1)c1ccccc1)c1ccccc1`, the EC50 was above 6.03 µM and the IC50 is 4.07 µM.
Take `CCc1n[nH]c(=O)n1NC(=O)/C=C\C(=O)O`: the EC50 is above 200 µM and the IC50 is above 200 µM.
For `O=C(COc1ccc2c(=O)cc(-c3ccc(Cl)cc3)oc2c1)N1CCN(c2ccccc2)CC1`, the EC50 was 0.813 µM and the IC50 worked out at 20.9 µM.
As for `N[C@@H]1C[C@H](N)c2c(Cl)sc(Cl)c21`, the EC50 was above 200 µM and the IC50 worked out at 141 µM.
Consider `COc1cccc(C=C2C(=O)c3ccccc3C2=O)c1`, for which the result was inactive.
In the case of `C/C=C(\C)c1cc(O)c(C)c2c1Oc1cc(O)c(Cl)c(C)c1C(=O)O2`, the result was inactive.
The same measure, in the same setting: the result for `CCOC(=O)c1ccc(N2C(=O)Cc3ccccc3C2=O)cc1` reads “inactive”.
On to `CCN(CC)C(C)(O)CN` (stereo not drawn), for which the EC50 was above 200 µM and the IC50 is above 200 µM.
For `CCOC(=O)C1(C(=O)OCC)C[C@]23OCCC(=O)[C@H]2[C@H]2C(=O)OC(C)(C)O[C@]23C1`, the EC50 is above 200 µM and the IC50 was above 200 µM.
For `C=CCCN(C=O)CCC/C(=C/CCCC)[Si](C)(C)C`, the EC50 was above 24.5 µM and the IC50 is above 24.5 µM.
Turning to `COc1ccc(C23OCCN2C(=O)c2ccccc23)cc1` (stereo not drawn), the EC50 was above 200 µM and the IC50 was determined as 19.1 µM.
The matching figures for `O=C1C2=C(CC3C(C2)C3(Br)Br)C(=O)C2=C1CC1C(C2)C1(Br)Br` (stereo not drawn): above 9.33 µM and above 9.33 µM.
The matching figures for `CC1(C)C(O)c2ccccc2OC1N1CCN(C2Oc3ccccc3C(O)C2(C)C)CC1` (stereo not drawn): above 200 µM and above 200 µM.
Turning to `CCOC(=O)C1NS(=O)(=O)NC(C(=O)OCC)NS(=O)(=O)N1` (stereo not drawn), the result was inactive.
Regarding `Brc1c(OCc2ccccc2)ccc2ccccc12`, the EC50 is above 200 µM and the IC50 turned out to be 191 µM.
As for `COc1c(C(=O)CC2c3c(cc4oc(C)cc(=O)c4c3OC)OC(=N)C2c2nc3ccccc3[nH]2)c(O)c(OC)c2occc12` (stereo not drawn), the EC50 is 25.1 µM and the half-inhibitory concentration (IC50) turned out to be 49 µM.
`Nc1ccc2c3c(ccc([N+](=O)[O-])c13)CC2`: the EC50 is above 200 µM and the IC50 was 102 µM.
Regarding `O=C(/C=C(\O)c1ccccc1)C(=O)NNc1ccc([N+](=O)[O-])cc1[N+](=O)[O-]`, the EC50 was above 200 µM and the IC50 is 60.3 µM.
The matching figures for `N#Cc1c(N)n(-c2nc3ccccc3s2)c(=O)c2cc([N+](=O)[O-])ccc12`: above 100 µM and 12 µM.
For the compound `COc1cc2c(c3c1c(=O)c1ccccc1n3C)C=CC1(CCCC1)O2`, the EC50 was above 200 µM and the IC50 turned out to be 11 µM.
Consider `COc1ccc(C2SCc3nc4ccccc4n32)cc1` (stereo not drawn), for which the result was inactive.
As to `O=[N+]([O-])/C(C(Cl)=C(Cl)Cl)=C1\Nc2ccccc2O1`, the EC50 was above 200 µM and the IC50 stood at 97.7 µM.
For `NC(CSS(=O)(=O)O)=NC1CC2CCC1C2` (stereo not drawn), the EC50 was above 200 µM and the IC50 worked out at 120 µM.
The matching figures for `NC(=S)NNCC(=O)CC(O)(C(F)(F)F)C(F)(F)Cl` (stereo not drawn): above 200 µM and 123 µM.
The matching figures for `CCCCCCCCCCCc1c2oc3ccc(C)cc3[nH]c-2cc(=O)c1=O`: above 4.68 µM and above 4.68 µM.
Take `Cc1ccc(S(=O)(=O)N2c3ccccc3[C@H]3CCC=C[C@H]32)cc1`: the EC50 was above 100 µM and the IC50 was found to be 6.92 µM.
With `Cc1cc(C)nc(NS(=O)(=O)c2ccc(N=c3c4ccccc4n(Cc4ccccc4)c4ccccc34)cc2)n1`, the outcome was inactive.
